Test results reported in BindingDB's records for doi:10.1021/jm701311r (Georgia Institute of Technology, 2008).

Key:
Test in all cases: AE Enzyme Inhibition Assay
[1] = target: T1, Clan CD, family C13, asparaginyl endopeptidase-like cysteine peptidase (Trichomonas vaginalis (strain ATCC PRA-98 / G3), UniProt A2DYT2)
T1 sequence (A2DYT2 whole entry): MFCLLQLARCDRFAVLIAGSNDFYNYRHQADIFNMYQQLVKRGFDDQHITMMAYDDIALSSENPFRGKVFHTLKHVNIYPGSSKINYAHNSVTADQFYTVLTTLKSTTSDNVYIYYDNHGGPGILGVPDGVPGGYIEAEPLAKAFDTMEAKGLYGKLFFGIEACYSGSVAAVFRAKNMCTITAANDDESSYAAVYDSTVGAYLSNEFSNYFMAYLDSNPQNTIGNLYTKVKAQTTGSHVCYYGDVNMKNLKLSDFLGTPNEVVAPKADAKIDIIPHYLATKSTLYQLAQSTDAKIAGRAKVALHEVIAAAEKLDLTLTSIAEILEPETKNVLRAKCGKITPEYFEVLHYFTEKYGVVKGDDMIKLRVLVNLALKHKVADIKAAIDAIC
Procedure: (§1) AE activity in the induction medium was measured with the substrate Cbz-Ala-Ala-Asn-AMC. In a black 96-well microtiter plate, aza-peptidyl inhibitors were added to the reaction buffer containing the activated enzyme, and allowed to incubate at room temperature for 20 min. Then, substrate Cbz- Ala-Ala-Asn-AMC was added and the reaction allowed proceeding for 20 min. Plotting the relative fluorescence units (RFU)/min against the inhibitor concentration (uM) permitted calculation of the IC50 value.

Legumain [2] = target: T2, Legumain (Schistosoma mansoni, UniProt Q9NFY9)
T2 sequence (Q9NFY9 whole entry): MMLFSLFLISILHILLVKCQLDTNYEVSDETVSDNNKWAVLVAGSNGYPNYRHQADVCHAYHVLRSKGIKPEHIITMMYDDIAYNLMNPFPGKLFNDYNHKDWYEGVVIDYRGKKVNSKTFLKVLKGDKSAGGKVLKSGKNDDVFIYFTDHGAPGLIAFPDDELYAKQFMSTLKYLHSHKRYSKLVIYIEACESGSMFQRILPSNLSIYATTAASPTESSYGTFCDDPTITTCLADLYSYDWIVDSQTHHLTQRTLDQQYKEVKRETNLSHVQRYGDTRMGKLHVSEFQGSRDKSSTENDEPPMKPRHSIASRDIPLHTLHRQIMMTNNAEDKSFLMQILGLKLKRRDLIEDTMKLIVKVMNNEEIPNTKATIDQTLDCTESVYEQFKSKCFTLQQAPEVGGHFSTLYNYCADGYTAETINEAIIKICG
Procedure: as §1

Legumain [3] = target: T3, Legumain (Ixodes ricinus, UniProt Q6PRC7); details: 25 °C
T3 sequence (Q6PRC7 whole entry): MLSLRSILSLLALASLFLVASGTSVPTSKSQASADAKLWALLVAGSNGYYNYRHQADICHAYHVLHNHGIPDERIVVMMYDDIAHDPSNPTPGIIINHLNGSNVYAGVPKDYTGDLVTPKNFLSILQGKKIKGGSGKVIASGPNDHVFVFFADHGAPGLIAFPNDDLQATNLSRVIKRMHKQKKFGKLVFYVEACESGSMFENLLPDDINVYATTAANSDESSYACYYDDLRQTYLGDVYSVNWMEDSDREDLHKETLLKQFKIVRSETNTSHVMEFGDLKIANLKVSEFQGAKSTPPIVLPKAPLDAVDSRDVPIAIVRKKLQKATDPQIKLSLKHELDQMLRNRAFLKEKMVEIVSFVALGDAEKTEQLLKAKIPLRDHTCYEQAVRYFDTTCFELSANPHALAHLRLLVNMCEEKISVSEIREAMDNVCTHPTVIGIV
Procedure: as §1

SMILES | IC50 ([1]; 25 °C) | IC50 (Legumain [2]; 25 °C) | IC50 (Legumain [3]) | IC50 ([1]; pH 6.8, 22 °C) | IC50 (Legumain [2]; pH 6.8, 22 °C)
C[C@H](NC(=O)OCc1ccccc1)C(=O)N[C@@H](C)C(=O)NN(CC(N)=O)C(=O)C=CC(=O)N(Cc1ccccc1)Cc1ccc(F)cc1 [benzyl N-[(1S)-1-{[(2S)-1-[(2E)-N-benzyl-3-[N-(carbamoylmethyl)hydrazido]-N-[(4-fluorophenyl)methyl]prop-2-enamide]-1-oxopropan-2-yl]carbamoyl}ethyl]carbamate] | < 1 nM | 60 nM | 700 nM |  | 
C[C@H](NC(=O)OCc1ccccc1)C(=O)N[C@@H](C)C(=O)NN(CC(N)=O)C(=O)C=CC(=O)NCc1ccccc1 [benzyl N-[(1S)-1-{[(2S)-1-[(2E)-N-benzyl-3-[N-(carbamoylmethyl)hydrazido]prop-2-enamide]-1-oxopropan-2-yl]carbamoyl}ethyl]carbamate] |  |  | 200 nM | 10 nM | 1000 nM
C[C@H](NC(=O)OCc1ccccc1)C(=O)N[C@@H](C)C(=O)NN(CC(N)=O)C(=O)C=CC(=O)N(Cc1ccccc1)Cc1cccc2ccccc12 [benzyl N-[(1S)-1-{[(2S)-1-[(2E)-N-benzyl-3-[N-(carbamoylmethyl)hydrazido]-N-(naphthalen-1-ylmethyl)prop-2-enamide]-1-oxopropan-2-yl]carbamoyl}ethyl]carbamate] | < 1 nM | 62 nM | 6 nM |  | 
